Where “and” joins values, the source holds several entries; their conditions need not be identical. Identical values can stand only once. Like-named read-outs stand apart in the source and are kept apart here. Each block holds one molecule with its values, some of them ahead of it.
Assays:
HIV-1 strain NL4-3 = assay: Anti-HIV-1 luciferase indicator assay in MT2 cells, NL4-3; format: cell-based; conditions: viral strain NL4-3
Experimental: (§1) Compound was dissolved in DMSO to make 30 mM stock. Then the 30 mM stock is further diluted to 4 mM using DMSO. The 4 mM stock was used as the top concentration to carry out an 11-point, 3-fold dilution scheme using DMSO in a 96-well plate to make the compound dose plate. Compounds in the dose plate were transferred to a new 96-well plate (working plate) containing PBS with 0.05% pluronic acid. From this working plate, the compound solution was transferred to the 384-well assay plates.
(§2) Control compounds used in compound control wells were prepared and added to assay plates individually.
(§3) MT2 cells were mixed with HIV-1 strain NL4-3 (or IIIB, or CNHN24) and the cell/virus mixture was added to the aforementioned antivirus assay plates. After incubation in a 37° C., 5% CO2 incubator, the supernatant from the assay plate was transferred to a new 384-well plate containing the indicator cells with a fire fly luciferase gene under HIV-1 LTR control. The expression level of luciferase was related to HIV-1 infectivity and was measured by Bright-Glo kit (Promega).
(§4) Therapeutic index (TI) was determined by taking ratio of CC50/IC50

HIV-1 strain IIIB = assay: Anti-HIV-1 luciferase indicator assay in MT2 cells, IIIB; format: cell-based; conditions: viral strain II B; for IC50: read-out: IC50
Experimental: as §1, §2, §3, §4

HIV-1 strain CNHN24 = assay: Anti-HIV-1 luciferase indicator assay in MT2 cells, CNHN24; format: cell-based; conditions: viral strain CNHN24; for IC50: read-out: IC50
Experimental: as §1, §2, §3, §4

in vitro = format: cell-based; conditions: human, CC50
Experimental: as §1
(§5) For cytotoxicity assay the same amount of MT2 cells as in antivirus assay but without HIV-1 virus were added to the cytotoxicity plates. The cytotoxicity was measured by Cell Titer-Glo cell viability assay (Promega).

HIV-193IN 101 = assay: P24 assay for anti-HIV activity in Sup-T1 cells; format: cell-based, HIV-1; conditions: Human immunodeficiency virus 1, SUP-T1, read-out: Percent Inhibition of HIV-193IN 101 Replication in Sup-T1 Cells (table title: Percent Viability)
Experimental: Viral p24 is measured after about 72 hours of post infection in presence of drugs using an ABL p24 ELISA kit. 0.5 million cells/well are taken into the 24 well plates and added increasing concentrations of drugs. 1 ng/ml of HIV-1 virus was added to each well and incubated for overnight at 37° C. (37° C. and 5% CO2). After about 16 hours incubation the media was changed and fresh media was added and cultured for about 72 hours. P24 was quantified at the 4th day of post-infection using an ABL kit according to manufacturer's instructions.
Percent Inhibition of HIV-193IN 101 Replication in Sup-T1 Cells

[1] = Cytotoxicity on Molt-4 cells (MTT); format: cell-based; conditions: human, read-out: Percent Viability; for viability at 24 h, 0.1 µM: concentration 0.1 μM; for viability at 24 h, 1 µM: concentration 1 μM; for viability at 24 h, 10 µM: concentration 10 μM; for viability at 24 h, 100 µM: concentration 100 μM
Experimental: 10 mM stock solution of the test compound was made in DMSO and stored at −20° C. for further use. During the day of the experiment working stocks were made by serial dilution with DMSO. The final concentration of DMSO in the test media is 1%.
MTT assay was performed in a 96 well format using Molt-4 cell line (Human acute T lymphoblastic leukemia)—a suspension culture maintained in RPMI with 10% FBS media.
Approximately 0.03 million cells are seeded/well and the plate was incubated for 16 hours. Following incubation, cells are treated with a test compound at a defined concentration in triplicates and incubation was continued for another 24 hours. At the end of the incubation, MTT reagent was added (10 μl, 5 mg/ml stock) to the plate and continued incubation for additional 4 hours. Reaction was terminated by addition of 200 μl 0.1N acidic propanol. The colour developed was measured by a plate reader using 590 nm filters. The percent viability was calculated by comparing mean absorbance value of sample with the control (Vehicle alone).

[2] = Cytotoxicity on Sup-T1 cells (MTT); format: cell-based; conditions: human, read-out: Percent Viability; for viability at 0.001 µM: concentration 1 nM; for viability at 0.1 µM: concentration 100 nM; for viability at 1 µM: concentration 1 μM; for viability at 100 µM: concentration 100 μM; for viability at 1 mM: concentration 1 mM
Experimental: Reduction of 3-(4,5-dimethylthiozol-2-yl)-2,5-diphenyltetrazolium bromide (MTT, sigma) is chosen as an optimal end point of cell viability measurement (Mosmann, 1983; Cole, 1986; Alley et al., 1988) […] (0.2×10^6 cells per well) are seeded in 96-well plates. Increasing concentrations of compound are added to the cells and incubated at 37° C. for about 14 hours in a CO2 Incubator with 5% CO2. The media is replaced with a fresh growth medium along with 20 μL of 5 mg/ml 3-(4,5-dimethylthiazol-2-yl)-2,5-diphenyltetrazolium bromide (MTT, Sigma). After incubation for about 4 hours in a humidified atmosphere, the media is removed and 200 μL of 0.1 N acidic isopropyl alcohol is added to the wells to dissolve the MTT-formazan crystals. The absorbance is recorded at 570 nm, immediately after the development of purple colour. Each experiment is conducted in triplicate and the data are represented as average, with standard deviation. Percent viability of the cells is computed with reference to the absorbance of reduced MTT in the experiments conducted in absence of any compound.

HIV-1 strain 92-HT599 = assay: Anti HIV-1 p24 assay, strain 92-HT599 in MT2 cells; format: cell-based; conditions: Human immunodeficiency virus 1, MT2 cells, read-out: Percent inhibition
Experimental: MT2 cells were infected with the HIV-1 strain 92-HT599 (10TCID50/30000 cells). The infected cells are plated at the concentration of 30000 cells per well in a 96 well assay micro plate. A test compound was added to the micro plate in a defined format with the final concentration of DMSO (vehicle) being not more than 1%. Incubation was carried out in a CO2 incubator for 96 hours for viral infection. At the end of incubation period an aliquot from each well was taken for p24 estimation. The quantitation of p24 is an index for antiviral activity of the compound. Percent inhibition was calculated with reference to control values (vehicle).
P24 estimation was carried out using an Advance Biosciences kit as per the procedure as detailed by supplier.
[…] was made by dissolving test compound in DMSO. Subsequent dilutions were made with DMSO to make necessary working stocks (100×).

MT2 cells = assay: in vitro; format: cell-based; conditions: human
Experimental: as §1, §5

[3] = Human immunodeficiency virus 1, NL43, MT2, MT2 cells, read-out: IC50
[4] = Human immunodeficiency virus 1, IIIB, MT2, MT2 cells
[5] = Human immunodeficiency virus 1, MT2, MT2 cells

SMILES: C=C(C)[C@@H]1CC[C@]2(C(=O)O)CC[C@]3(C)[C@H](CC[C@@H]4[C@@]5(C)CC[C@H](OC(=O)[C@H]6C[C@@H](C(=O)O)C6(C)C)C(C)(C)[C@@H]5CC[C@]43C)[C@@H]12 [Example 19, (1R,3aS,5aR,5bR,7aR,9S,11aR,11bR,13aR,13bR)-9-((1S,3R)-3-carboxy-2,2-dimethylcyclobutanecarbonyloxy)-5a,5b,8,8,11a-pentamethyl-1-(prop-1-en-2-yl)icosahydro-1H-cyclopenta[a]chrysene-3a-carboxylic acid]
IC50 (HIV-1 strain NL4-3; [3]): 72 nM
TI / Safety Index (CC50/IC50) (HIV-1 strain NL4-3; MT2 cells): 277
IC50 (HIV-1 strain IIIB; [4]): 21 nM
TI / Safety Index (CC50/IC50) (HIV-1 strain IIIB; MT2 cells): 952
IC50 (HIV-1 strain CNHN24; [5]): 26 nM
TI / Safety Index (CC50/IC50) (HIV-1 strain CNHN24; MT2 cells): 769
melting point: 308 to 310 °C
CC50 (in vitro): 20000 nM

SMILES: C=C(C)[C@@H]1CC[C@]2(C(=O)O)CC[C@]3(C)[C@H](CC[C@@H]4[C@@]5(C)CC[C@H](OC(=O)[C@@H]6C[C@H](C(=O)O)C6(C)C)C(C)(C)[C@@H]5CC[C@]43C)[C@@H]12 [Example 4, (1R,3aS,5aR,5bR,7aR,9S,11aR,11bR,13aR,13bR)-9-((1R,3S)-3-carboxy-2,2-dimethylcyclobutanecarbonyloxy)-5a,5b,8,8,11a-pentamethyl-1-(prop-1-en-2-yl)icosahydro-1H-cyclopenta[a]chrysene-3a-carboxylic acid]
IC50 (HIV-1 strain NL4-3; [3]): 201 nM
TI / Safety Index (CC50/IC50) (HIV-1 strain NL4-3; MT2 cells): 91
inhibition at 0.0001 µM (HIV-193IN 101): 13%
inhibition at 0.001 µM (HIV-193IN 101): 17.7%
inhibition at 0.1 µM (HIV-193IN 101): 23.5%
inhibition at 1 µM (HIV-193IN 101): 42.4%
inhibition at 100 µM (HIV-193IN 101): 87.5%
viability at 24 h, 0.1 µM [1]: 101%
viability at 24 h, 1 µM [1]: 98.7%
viability at 24 h, 10 µM [1]: 102%
viability at 24 h, 100 µM [1]: 7.03%
IC50 (HIV-1 strain IIIB; [4]): 364 nM
TI / Safety Index (CC50/IC50) (HIV-1 strain IIIB; MT2 cells): 54
IC50 (HIV-1 strain CNHN24; [5]): 218 nM
TI / Safety Index (CC50/IC50) (HIV-1 strain CNHN24; MT2 cells): 91
viability at 0.001 µM [2]: 85.8%
viability at 0.1 µM [2]: 86.8%
viability at 1 µM [2]: 85.2%
viability at 100 µM [2]: 39%
viability at 1 mM [2]: 26.2%
CC50 (in vitro): 20000 nM

melting point: 64.7 to 100.4 °C
SMILES: C=C(C)[C@@H]1CC[C@]2(C(=O)N[C@@H]3C[C@H](C(=O)OCc4ccccc4)C3(C)C)CC[C@]3(C)[C@H](CC[C@@H]4[C@@]5(C)CC[C@H](OC(=O)CC(C)(C)C(=O)O)C(C)(C)[C@@H]5CC[C@]43C)[C@@H]12

SMILES: C=C(C)[C@@H]1CC[C@]2(C(=O)N[C@H]3C[C@@H](C(=O)N4CCCC4)C3(C)C)CC[C@]3(C)[C@H](CC[C@@H]4[C@@]5(C)CC[C@H](OC(=O)CC(C)(C)C(=O)O)C(C)(C)[C@@H]5CC[C@]43C)[C@@H]12 [Example 15, 4-((1R,3aS,5aR,5bR,7aR,9S,11aR,11bR,13aR,13bR)-3a-((1S,3R)-2,2-dimethyl-3-(pyrrolidine-1-carbonyl)cyclobutylcarbamoyl)-5a,5b,8,8,11a-pentamethyl-1-(prop-1-en-2-yl)icosahydro-1H-cyclopenta[a]chrysen-9-yloxy)-2,2-dimethyl-4-oxobutanoic acid]
inhibition at 0.1 µM (HIV-1 strain 92-HT599; HIV-1 92-HT599, p24, concentration 0.1 μM): 86%
inhibition at 1 µM (HIV-1 strain 92-HT599; HIV-1 92-HT599, p24, concentration 1 μM): 98%
melting point: 110 to 114 °C

SMILES: C=C(C)[C@@H]1CC[C@]2(C(=O)O)CC[C@]3(C)C(CC[C@@H]4[C@@]5(C)[C@@H](C(=O)O)[C@H](OC(=O)CC(C)(C)C(=O)O)C(C)(C)[C@@H]5CC[C@]43C)C12 (stereo partly drawn) [Example 6, (1R,2S,3aR,5aR,5bR,7aS,10R,12aR,12bR)-2-(3-carboxy-3-methylbutanoyloxy)-3,3,5a,5b,12b-pentamethyl-10-(prop-1-en-2-yl)icosahydrodicyclopenta[a,i]phenanthrene-1,7a-dicarboxylic acid]
inhibition at 0.0001 µM (HIV-193IN 101): 17.5%
inhibition at 0.001 µM (HIV-193IN 101): 15.2%
inhibition at 0.1 µM (HIV-193IN 101): 21.1%
inhibition at 1 µM (HIV-193IN 101): 32.1%
inhibition at 100 µM (HIV-193IN 101): 34.9%
viability at 24 h, 0.1 µM [1]: 103%
viability at 24 h, 1 µM [1]: 99%
viability at 24 h, 10 µM [1]: 82.8%
viability at 24 h, 100 µM [1]: 7.27%
viability at 0.001 µM [2]: 86.9%
viability at 0.1 µM [2]: 82.7%
viability at 1 µM [2]: 88.6%
viability at 100 µM [2]: 88.8%
viability at 1 mM [2]: 23.1%

melting point: 257.7 to 269 °C
SMILES: C=C(C)[C@@H]1CC[C@]2(C(=O)N[C@H]3C[C@@H](C(=O)N4CCCCC4)C3(C)C)CC[C@]3(C)[C@H](CC[C@@H]4[C@@]5(C)CC[C@H](OC(=O)[C@@H]6C[C@H](C(=O)O)C6(C)C)C(C)(C)[C@@H]5CC[C@]43C)[C@@H]12

SMILES: C=C(C)[C@@H]1CC[C@]2(C(=O)N[C@@H]3C[C@H](C(=O)N4CCCCC4)C3(C)C)CC[C@]3(C)[C@H](CC[C@@H]4[C@@]5(C)CC[C@H](OC(=O)CC(C)(C)C(=O)O)C(C)(C)[C@@H]5CC[C@]43C)[C@@H]12 [Example 48, 4-((1R,3aS,5aR,5bR,7aR,9S,11aR,11bR,13aR,13bR)-3a-((1R,3S)-2,2-dimethyl-3-(piperidine-1-carbonyl)cyclobutylcarbamoyl)-5a,5b,8,8,11a-pentamethyl-1-(prop-1-en-2-yl)icosahydro-1H-cyclopenta[a]chrysen-9-yloxy)-2,2-dimethyl-4-oxobutanoic acid]
IC50 (HIV-1 strain NL4-3; Human immunodeficiency virus 1, NL43, MT2, MT2 cells): 9 nM
TI / Safety Index (CC50/IC50) (HIV-1 strain NL4-3; MT2 cells): 2072 and 1176
IC50 (HIV-1 strain NL4-3; MT2 cells, read-out: IC50): 17 nM
IC50 (HIV-1 strain IIIB; [4]): 18 nM
TI / Safety Index (CC50/IC50) (HIV-1 strain IIIB; MT2 cells): 1061 and 800
IC50 (HIV-1 strain IIIB; MT2 cells): 25 nM
IC50 (HIV-1 strain CNHN24; [5]): 11 nM
IC50 (HIV-1 strain CNHN24; MT2 cells): 21 nM
CC50 (MT2 cells): 20000 nM
CC50 (in vitro): > 20000 nM
